Entries after “also recorded” stand apart in the source; their conditions may differ. Ends that are not written are not given here. * marks the point of attachment. Biotin = O=C1N[C@H]2[C@H](CS[C@H]2CCCCC(=O)*)N1
B1: PQ65: 65 amino acid residue peptide called PQ65 (Cdc20 169–232) (peptide, UniProt P26309 169-232, looked up, fragment)
chain: PPNASPISHLRAQTKIVFKQNVAEACGLDMNKRILQYMPEPPKCSSLRQKSYIMKKRTHYSYQQ

Key:
[1] = test system: budding yeast Saccharomyces cerevisiae cells; test: Benomyl sensitivity upon over expression in vivo (colony numbers per plate); type: cell-based; conditions: for benomyl sensitivity on over expression (in words): pGAL1-10 over expression with N-terminal NLS, 12.5 μg/mL benomyl, average colony numbers per plate, 5 replicates; for effect of over expression on colony number without benomyl (in words): pGAL1-10 over expression, galactose, no benomyl
Method: For the production of high quality DNA for in vitro transcription/translation E. coli were grown in 50 mL LB containing 100 μg/mL ampicillin for 12–16 hours at 37 °C. Purified plasmid DNA, which was dissolved with 50 μL ddH2O or DEPC (diethyl pyrocarbonate)-treated water, was measured at OD260/280 and stored at -20 °C (Bioman, Inc., Taiwan). All mutant allele expression plasmids were constructed employing site-directed mutagenesis following the manufacturer’s protocol (Stratagene, USA). Yeast were cultured under standard conditions. For large-scale yeast cultures to purify APC/C, yeast were cultured overnight in 10 mL YPD medium (20 g Dextrose, 20 g peptone, and 10 g yeast extract per liter) at 30 °C. 1.5 L of YPD medium in two Fernbach flasks was inoculated with 1 mL overnight culture and supplemented with 100 μg/mL ampicillin and 100 μg/mL streptomycin to prevent bacterial growth. Cell cycle arrest, collection of yeast cells and yeast cell extractions were all performed as previously described.
There is a long-term interest in identifying APC/C inhibitors that give rise to sensitivity to microtubule poisons in vivo. To determine if a Cdc20 Mad2-binding motif peptide was sufficient to induce a microtubule poison sensitivity phenotype in vivo, the DQ36 and PQ65 peptides were over expressed under the control of a galactose inducible pGAL1-10 promoter that had been integrated as single copy into the yeast genome together with the peptide open reading frames (ORF). The expressed proteins were engineered to contain an N-terminal nuclear localization signal ([…]) along with a short amino acid ‘linker’ in order to target the nuclear pool of the APC/C because yeast undergo a closed mitosis without nuclear envelope breakdown. […] This phenotype was suppressed by mutating the yeast KILR-motif residues RILQY to AAAAA (Fig 7B) providing a direct correlation between our observed in vitro APC/C inhibition that requires the yeast KILR-motif RILQY residues and an in vivo microtubule poison sensitivity phenotype.

APC/C^Cdh1 = APC/C^Cdh1 enzyme assay (ubiquitination of 35S-Pds1); type: biochemical, Saccharomyces cerevisiae; conditions: 220 μM peptide; 35S-Pds1 substrate; time course 0-60 minutes; vs buffer; n = 3
Method: Full-length, radio-labeled protein purifications were preformed as previously described. ^35S-Pds1 was prepared in a 500 μL IVT/T (In Vitro Transcription/Translation) reaction (Promega, USA), which contained 400 μL rabbit reticulocyte lysate, 20 μL of L-^35S-methionine (PerkinElmer, USA), 10 μg of plasmid DNA, and the remaining volume as nuclease-free ddH2O as recommended by the manufacturer. The reaction mixture was incubated for 2 hours at room temperature and gently mixed every 30 minutes. The reaction was added to pre-equilibrated IgG Sepharose beads (GE Healthcare, USA) in Bio-spin disposable chromatography columns (Bio-Rad, USA) for binding for 2 hours at room temperature. To ensure efficient binding, the beads were re-suspended several times every 30 minutes. After binding, the beads were washed with 5 mL wash buffer, containing 200 mM 4-(2-hydroxyethyl)-1-piperazineethanesulfonic acid (HEPES) at pH 8.0, 150 mM NaCl, 10% (v/v) glycerol, and 1 mM dithiothreitol (DTT). The ^35S-Pds1 was cleaved from the beads using TEV (Tobacco Etch Virus) protease in 1x TEV buffer (Invitrogen, USA) for 2 hours at room temperature, and the mixture was re-suspended several times every 30 minutes to promote efficient cleavage. The elution was collected and concentrated by employing an Amicon Ultra filter column (Millipore, Ireland). The concentrated ^35S-Pds1 was collected in a new tube, and stored at -20 °C.
The production of Cdc20 or Cdh1 was prepared by IVT/T reactions, where 16 μL of rabbit reticulocyte lysate, 20 μM L-methionine, 0.4 μg of plasmid DNA, and a volume of nuclease-free ddH2O for a total volume of 20 μL. This freshly synthesized Cdc20 or Cdh1 protein was used directly in all APC/C assays after a 1-hour synthesis reaction at room temperature. The APC/C was purified for enzyme assays from 1 mL of TAP-tagged Cdc16 yeast extract (SCSY51) where extract was mixed with 50 μL 50:50 slurry magnetic beads (Invitrogen, Norway) for 2 hours at 4 °C. After incubation, the beads were washed with 3 mL APC/C wash buffer (200 mM of HEPES, 150 mM of NaCl and 10% (v/v) of glycerol). APC/C bound to IgG magnetic beads was used directly in the enzyme assays.
APC/C assays were performed by adding the reaction contents in following order: 4.3 μL of QAH buffer, 20 μL of rabbit reticulocyte lysate containing Cdc20 or Cdh1 with or without an additional volume of recombinant checkpoint protein(s) or inhibitor peptides, 2.4 μL ubiquitin aldehyde (Boston Biochem, USA), APC/C, 16 μL pre-charged E1/E2/ATP/ubiquitin mix, and 13.3 μL of ^35S-Pds1 with QAH buffer (20 mM HEPES at pH 8.0, 100 mM NaCl, and 1 mM MgCl2). […]

Molecule | benomyl sensitivity on over expression (in words) [1] | effect of over expression on colony number without benomyl (in words) [1] | inhibition of APC/C^Cdh1 activity (in words) (APC/C^Cdh1)
DQ36-mut1: DQ36-mut1 where all 5 RILQY residues were changed to alanine AAAAA (Biotin-DMNKAAAAAMPEPPKCSSLRQKSYIMKKRTHYSYQQ) | The benomyl sensitivity phenotype was not observed | no significant difference in colony numbers per plate in the absence of benomyl | displayed a similar loss in the ability to inhibit this APC/C^Cdh1 enzyme activity relative to wild type DQ36
B1 | induced a significant sensitivity to benomyl; also recorded: leads to sensitivity to the microtubule poison benomyl | no change in colony number or colony morphology was observed; also recorded: no significant difference in colony numbers per plate in the absence of benomyl | observed to inhibit APC/C^Cdh1; also recorded: a significant level of APC/C^Cdh1 inhibition was observed

Source: paper PMC5993284, “Peptide inhibitors of the anaphase promoting-complex that cause sensitivity to microtubule poison” (PLoS ONE, 2018)
